Like-named read-outs stand apart in the source and are kept apart here.
What was measured:
[1] = biological target: T1, muscarinic M1 receptor (Homo sapiens, UniProt P11229); test: R-SAT functional screen, M1; format: cell-based; details: for Emax: read-out: M1 eff (efficacy); for EC50: read-out: M1 pEC50 (converted)
T1 construct: expressed in transfected cells
T1 sequence (P11229 1-460): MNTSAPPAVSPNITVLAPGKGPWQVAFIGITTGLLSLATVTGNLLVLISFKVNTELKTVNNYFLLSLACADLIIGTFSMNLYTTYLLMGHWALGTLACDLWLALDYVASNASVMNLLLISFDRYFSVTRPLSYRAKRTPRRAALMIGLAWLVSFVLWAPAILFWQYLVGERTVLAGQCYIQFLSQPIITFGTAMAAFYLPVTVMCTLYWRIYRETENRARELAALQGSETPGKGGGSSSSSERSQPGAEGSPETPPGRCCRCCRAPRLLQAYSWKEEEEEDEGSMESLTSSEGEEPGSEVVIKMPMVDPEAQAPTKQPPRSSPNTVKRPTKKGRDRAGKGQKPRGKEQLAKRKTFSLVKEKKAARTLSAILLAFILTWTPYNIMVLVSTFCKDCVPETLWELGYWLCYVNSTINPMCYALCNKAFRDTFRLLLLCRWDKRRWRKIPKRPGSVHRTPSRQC
Method: (§1) Several compounds disclosed herein were evaluated for activity at muscarinic receptors using Receptor Selection and Amplification Technology (R-SAT) as described in U.S. Pat. No. 5,707,798, the disclosure of which is incorporated herein by reference in its entirety. The efficacy (eff) and potency (expressed as pEC50) of these compounds are presented in Table 1 at M1, M2, and M3 receptors.

[2] = biological target: T2, muscarinic M2 receptor (Homo sapiens, UniProt P08172); test: R-SAT functional screen, M2; format: cell-based; details: for Emax: read-out: M2 eff (efficacy)
T2 construct: expressed in transfected cells
T2 sequence (P08172 1-466): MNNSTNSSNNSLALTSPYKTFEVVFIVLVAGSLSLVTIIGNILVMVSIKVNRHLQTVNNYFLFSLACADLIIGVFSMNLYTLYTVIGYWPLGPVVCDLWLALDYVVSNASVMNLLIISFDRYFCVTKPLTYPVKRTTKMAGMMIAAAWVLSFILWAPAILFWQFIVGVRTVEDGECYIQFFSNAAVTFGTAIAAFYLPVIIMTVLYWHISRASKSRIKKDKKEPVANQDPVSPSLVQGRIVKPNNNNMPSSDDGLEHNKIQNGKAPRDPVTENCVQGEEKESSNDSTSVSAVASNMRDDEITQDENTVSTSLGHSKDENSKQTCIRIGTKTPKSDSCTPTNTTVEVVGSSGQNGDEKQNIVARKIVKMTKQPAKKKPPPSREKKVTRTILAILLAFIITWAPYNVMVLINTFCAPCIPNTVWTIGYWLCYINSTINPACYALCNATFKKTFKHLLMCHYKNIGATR
Method: as §1

[3] = R-SAT, read-out: M2 pEC50 (converted)

SMILES	Emax ([1]; R-SAT) [%]	Emax ([2]; R-SAT) [%]	EC50 ([1]; R-SAT) [nM]	EC50 [2, 3] [nM]	Emax [1] [%]	Emax [2] [%]	EC50 [2] [nM]
Cc1ccc2c(c1)C(N1CCNCC1)=Nc1cc(C(F)(F)F)ccc1N2 [2-Methyl-11-(piperazin-1-yl)-8-trifluoromethyl-5H-dibenzo[b,e][1,4]diazepine]	15	14					
Clc1ccc2c(c1)Nc1cc(Cl)ccc1C(N1CCNCC1)=N2 [3,7-Dichloro-11-(piperazin-1-yl)-5H-dibenzo[b,e][1,4]diazepine]	15	19					
Clc1ccc2c(c1)N=C(N1CCNCC1)c1ccc(Cl)cc1N2 [3,8-Dichloro-11-(piperazin-1-yl)-5H-dibenzo[b,e][1,4]diazepine]	34	58	126	1580			
Clc1ccc2c(c1)Nc1ccccc1N=C2N1CCNCC1 [3-Chloro-11-(piperazin-1-yl)-5H-dibenzo[b,e][1,4]diazepine]	16	27		2000			
Fc1ccc2c(c1)N=C(N1CCNCC1)c1ccccc1C2 [3-Fluoro-6-piperazin-1-yl-11H-dibenzo[b,e]azepine]	23	55		794			
C=CCN1c2ccc(Cl)cc2N=C(N2CCNCC2)c2ccccc21 [5-Allyl-8-chloro-11-(piperazin-1-yl)-5H-dibenzo[b,e][1,4]diazepine]	12	46		1580			
Clc1ccc2c(c1)N=C(C1CCNCC1)c1ccccc1N2Cc1ccccc1 [5-Benzyl-8-chloro-11-(piperidin-4-yl)-5H-dibenzo[b,e][1,4]diazepine]	12	5					
Clc1cc2c(cc1Cl)Nc1ccccc1C(N1CCNCC1)=N2 [7,8-Dichloro-11-(piperazin-1-yl)-5H-dibenzo[b,e][1,4]diazepine]	32	8	79.4				
CC1CC(N2CCNCC2)=Nc2cc(Br)ccc2N1 (stereo not drawn) [7-Bromo-2-methyl-(piperazin-1-yl)-2,3-dihydro-1H-benzo[b][1,4]diazepine]	16	23					
Brc1ccc2c(c1)N=C(N1CCNCC1)CC(c1ccccc1)N2 (stereo not drawn) [7-Bromo-2-phenyl-4-(piperazine-1-yl)-2,3-dihydro-1H-benzo[b][1,4]diazepine]	3	19					
Brc1ccc2c(c1)N=C(N1CCNCC1)CCN2 [7-Bromo-4-(piperazin-1-yl)-2,3-dihydro-1H-benzo[b][1,4]diazepine]	56	3	2510				
Brc1ccc2c(c1)N=C(N1CCNCC1)C1CCCC1N2 (stereo not drawn) [7-Bromo-10-(piperazin-1-yl)-1,2,3,3a,4,10a-hexahydro-benzo[b]cyclopenta[e][1,4]diazepine]	50	12	1580				
Cc1ccc2c(c1)C(N1CCNCC1)=Nc1ccc(Cl)cc1N2 [7-Chloro-2-methyl-11-(piperazin-1-yl)-5H-dibenzo[b,e][1,4]diazepine]	-3	5					
Clc1ccc2c(c1)Nc1ccccc1C(N1CCNCC1)=N2 [7-Chloro-11-(piperazin-1-yl)-5H-dibenzo[b,e][1,4]diazepine]	48	53	251				
O=S(=O)(Oc1ccc2c(c1)N=C(N1CCNCC1)c1ccccc1N2)C(F)(F)F [8-(Trifluoromethanesulfonyloxy)-11-(piperazin-1-yl)-5H-dibenzo[b,e][1,4]diazepine]	19	62		2510			
Clc1ccc2c(c1)C(N1CCNCC1)=Nc1cc(Br)ccc1N2 [8-Bromo-2-chloro-11-(piperazin-1-yl)-5H-dibenzo[b,e][1,4]diazepine]	10	29		3160			
Cc1ccc2c(c1)C(N1CCNCC1)=Nc1cc(Br)ccc1N2 [8-Bromo-2-methyl-11-(piperazin-1-yl)-5H-dibenzo[b,e][1,4]diazepine]	8	44					
Clc1ccc2c(c1)Nc1ccc(Br)cc1N=C2N1CCNCC1 [8-Bromo-3-chloro-11-(piperazin-1-yl)-5H-dibenzo[b,e][1,4]diazepine]	31	34	251	316			

SMILES	Emax ([1]; R-SAT) [%]	Emax ([2]; R-SAT) [%]	EC50 ([1]; R-SAT) [nM]	EC50 [2, 3] [nM]	Emax [1] [%]	Emax [2] [%]	EC50 [2] [nM]
CN1c2ccc(Br)cc2N=C(N2CCNCC2)c2ccccc21 [8-Bromo-5-methyl-11-(piperazin-1-yl)-5H-dibenzo[b,e][1,4]diazepine]	92	75	398	2510			
O=S(=O)(Oc1ccc2c(c1)C(N1CCNCC1)=Nc1cc(Cl)ccc1N2)C(F)(F)F [8-Chloro-2-(trifluoromethanesulfonyloxy)-11-(piperazin-1-yl)-5H-dibenzo[b,e][1,4]diazepine]	-2	16					
Fc1ccc2c(c1)C(N1CCNCC1)=Nc1cc(Cl)ccc1N2 [8-Chloro-2-fluoro-11-(piperazin-1-yl)-5H-dibenzo[b,e][1,4]diazepine]	32	121	158	3160			
COc1ccc2c(c1)C(N1CCNCC1)=Nc1cc(Cl)ccc1N2 [8-Chloro-2-methoxy-11-(piperazin-1-yl)-5H-dibenzo[b,e][1,4]diazepine]	7	7					
Cc1ccc2c(c1)C(N1CCNCC1)=Nc1cc(Cl)ccc1N2 [8-Chloro-2-methyl-11-(piperazin-1-yl)-5H-dibenzo[b,e][1,4]diazepine]	14	28		1260			
Clc1ccc2c(c1)N=C(N1CCNCC1)c1cccnc1N2 [8-Chloro-5-piperazin-1-yl-1H-benzo[b]pyrido[2,3-e][1,4]diazepine]			3160		51	7	
Clc1ccc2c(c1)N=C(c1cn[nH]c1)c1ccccc1N2 [8-Chloro-11-(1H-pyrazol-4-yl)-5H-dibenzo[b,e][1,4]diazepine]	9	3					
Clc1ccc2c(c1)N=C(N1CC3CC1CN3)c1ccccc1N2 (stereo not drawn) [8-Chloro-11-(2,5-diaza-bicyclo[2.2.1]hept-2-yl)-5H-dibenzo[b,e][1,4]diazepine]	34	49	251	2510			
CC1CN(C2=Nc3cc(Cl)ccc3Nc3ccccc32)CC(C)N1 (stereo not drawn) [8-Chloro-11-(3,5-dimethyl-piperazin-1-yl)-5H-dibenzo[b,e][1,4]diazepine]	18	97		2510			
Clc1ccc2c(c1)N=C(N1CCNC(c3ccccc3)C1)c1ccccc1N2 (stereo not drawn) [8-Chloro-11-(3-phenyl-piperazin-1-yl)-5H-dibenzo[b,e][1,4]diazepine]	5	23					
Fc1ccc(CC2=Nc3cc(Cl)ccc3Nc3ccccc32)cc1 [8-Chloro-11-(4-fluorobenzyl)-5H-dibenzo[b,e][1,4]diazepine]	3	7					
Fc1ccc(C2=Nc3cc(Cl)ccc3Nc3ccccc32)cc1 [8-Chloro-11-(4-fluorophenyl)-5H-dibenzo[b,e][1,4]diazepine]	13	4					
CN1CCCN(C2=Nc3cc(Cl)ccc3Nc3ccccc32)CC1 [8-Chloro-11-(4-methyl-[1,4]diazepam-1-yl)-5H-dibenzo[b,e][1,4]diazepine]					18	50	1260
CN1CCN(C2=Nc3cc(Cl)ccc3Oc3ccccc32)CC1 [8-Chloro-11-(4-methyl-piperazin-1-yl)-dibenzo[b,f][1,4]oxazepine]	13	46		1580			
CCCCCCCCCc1ccc(C2=Nc3cc(Cl)ccc3Nc3ccccc32)cc1 [8-Chloro-11-(4-nonylphenyl)-5H-dibenzo[b,e][1,4]diazepine]	1	8					
Clc1ccc2c(c1)N=C(N1CCOCC1)c1ccccc1N2 [8-Chloro-11-(morpholin-4-yl)-5H-dibenzo[b,e][1,4]diazepine]	11	6					
Clc1ccc2c(c1)N=C(N1CCNCC1)c1ccccc1O2 [8-Chloro-11-(piperazin-1-yl)-dibenzo[b,f][1,4]oxazepine]	52	58	100	1000			
Clc1ccc2c(c1)N=C(N1CCNCC1)c1ccccc1S2 [8-Chloro-11-(piperazin-1-yl)-dibenzo[b,f][1,4]thiazepine]	11	52		1260			
